Data taken from PMC3199943, “Screening the MayBridge Rule of 3 Fragment Library for Compounds That Interact with the Trypanosoma brucei myo-Inositol-3-Phosphate Synthase and/or Show Trypanocidal Activity” (Molecular Biology International, 2011).
Counter-ions that a name gives are not always drawn. Like-named read-outs stand apart in the source and are kept apart here.

How the values were obtained:
TbINO1 = target: T1, TbINO1 (Trypanosoma brucei brucei, UniProt Q5QQ46); assay: biochemical; assay type: binding
T1 sequence (Q5QQ46 1-528): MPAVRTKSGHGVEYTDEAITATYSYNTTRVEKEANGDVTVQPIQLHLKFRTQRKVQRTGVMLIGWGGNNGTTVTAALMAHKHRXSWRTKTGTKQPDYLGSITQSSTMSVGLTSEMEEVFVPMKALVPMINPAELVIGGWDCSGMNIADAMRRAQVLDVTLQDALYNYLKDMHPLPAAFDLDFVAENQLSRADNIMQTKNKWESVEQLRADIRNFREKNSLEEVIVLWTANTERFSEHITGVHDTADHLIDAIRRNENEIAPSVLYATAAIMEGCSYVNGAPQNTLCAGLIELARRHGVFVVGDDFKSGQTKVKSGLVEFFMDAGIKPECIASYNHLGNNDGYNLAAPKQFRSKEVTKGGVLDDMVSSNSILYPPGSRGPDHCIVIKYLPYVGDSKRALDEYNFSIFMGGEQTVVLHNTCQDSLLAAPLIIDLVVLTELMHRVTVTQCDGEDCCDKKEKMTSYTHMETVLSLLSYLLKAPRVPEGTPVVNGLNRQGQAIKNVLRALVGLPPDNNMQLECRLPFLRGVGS

A549 cells = assay: Cytotoxicity against A549 cells, Alamar Blue; assay type: cell-based; conditions: Supplementary Table 1, compound 0.5 mM, percentage of controls (n=1); for viability at 500 µM: Homo sapiens, A549, 65 h
Outline: (§1)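 Viability by Alamar Blue (5 h) after ~65 h drug treatment; seeding density 2 × 10^4 cells/well in DMEM supplemented with 10% FCS and 2 mM L-Glutamine.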

HeLa cells = assay: cells; conditions: for viability at 500 µM / CC50: Homo sapiens, HeLa; for viability at 500 µM: 65 h; for CC50: read-out: HeLa ED50; for HeLa Cells Alamar Blue: Supplementary Table 1
Outline: as §1

[1] = read-out: Tb Ino1 Tm Shift [˚C]
[2] = read-out: HeLa Cells Alamar Blue
[3] = read-out: HeLa Cells Alamar Blue (% survival)
[4] = Supplementary Table 1, compound 1mM, mean ± SD from Boltzman curve fitting
[5] = compound 0.5 mM, percentage of controls, mean ± SD (n=3) or SE (n=2)

SMILES | viability at 500 µM (A549 cells) [%] | ΔTm at 1000 µM (TbINO1; [1]) [°C] | viability at 500 µM (HeLa cells; [2]) [%] | other results
O=C(O)c1ccc2cc[nH]c2c1 [compound 271, 1H‐indole‐6‐carboxylic acid] | 75.6 |  |  | ΔTm at 1000 µM (TbINO1; Supplementary Table 1, compound 1mM, mean ± SD from Boltzman curve fitting, read-out: Tb Ino1 Tm Shift [˚C]): 0.06 ± 0.08 °C; viability at 500 µM (HeLa cells; read-out: HeLa Cells Alamar Blue, Supplementary Table 1, compound 0.5 mM, percentage of controls, mean ± SD (n=3) or SE (n=2)): 111 ± 16.2%
Cc1ccc[nH]c1=O [compound 17, 3‐methyl‐1,2‐dihydropyridin‐2‐one] | 87.2 | 0.81 ± 0.08 | 106 ± 11.4 | 
O=C(O)c1ccoc1 [compound 28, 3-furoic acid] | 111 |  | 48.2 ± 11.8 | ΔTm at 1000 µM (TbINO1; read-out: TbIno1 Tm shift [°C]): 3.72 ± 0.08 °C; viability at 500 µM (HeLa cells; [3]): 48.2 ± 11.8%
CCc1ccc(CNC)cc1 [compound 180, N‐(4‐ethylbenzyl)‐N‐methylamine] | 87 | 0.14 ± 0.08 | 99.8 ± 1.1 | 
CC(=O)c1ccc(S(C)(=O)=O)cc1 [compound 604, 1‐[4‐(methylsulfonyl)phenyl]ethan‐1‐one] | 63.9 | 0.18 ± 0.06 | 83.1 ± 19.6 | 
OCc1cccc(N2CCOCC2)c1 [compound 579, (3‐morpholinophenyl)methanol] | 101 | 0.18 ± 0.08 | 100 ± 13.5 | 
Cc1csc(C(N)=O)c1 [compound 134, 4‐methylthiophene‐2‐carboxamide] | 123 | 0.61 ± 0.07 | 83.1 ± 5.6 | 
Nc1ccc(-c2ccco2)cc1 [compound 257, 4‐(2‐furyl)aniline] | 75.7 | 0.83 ± 0.04 | 17 ± 12.7 | CC50 (HeLa cells): 114 ± 8 µM
Cc1cc(C(=O)O)c2cc(F)ccc2n1 [compound 660, 6‐fluoro‐2‐methyl‐4‐quinolinecarboxylic acid] |  |  |  | Tb Ino1 Tm Shift [˚C] (TbINO1; [4]): 0.5 ± 0.06 °C; A549 Cells Alamar Blue (A549 cells): 146.9 percentage of controls; HeLa Cells Alamar Blue (HeLa cells; [5]): 103 ± 3.9 percentage of controls
Cn1nc2ccccc2c1CO [compound 285, (2‐methyl‐2H‐indazol‐3‐yl)methanol] | 67.6 | 0.29 ± 0.07 | 73.4 ± 10.6 | 
O=C(O)Cc1cccnc1 [compound 381, pyridin‐3‐ylacetic acid hydrochloride] | 105 | 1.08 ± 0.05 | 99.2 ± 9.9 | 
CC(=O)NCc1cccnc1 [compound 188, N1‐(3‐pyridylmethyl)acetamide] | 69.5 | 0.05 ± 0.07 | 104 ± 7.3 | 
Cc1ccc(C(N)=O)c(N)c1 [compound 190, 2-amino-4-methylbenzamide] | 106 |  | 46.7 ± 23.7 | ΔTm at 1000 µM (TbINO1; read-out: TbIno1 Tm shift [°C]): 1.52 ± 0.06 °C; viability at 500 µM (HeLa cells; [3]): 46.7 ± 23.7%
CC(=O)c1ccc(C#N)s1 [compound 198, 5‐acetylthiophene‐2‐carbonitrile] | 61.2 | 0.24 ± 0.07 | 93.3 ± 15.3 | 
Cc1cc(C(=O)O)c(-c2ccccc2)o1 [compound 635, 5‐methyl‐2‐phenyl‐3‐furoic acid] | 90.1 | 0.38 ± 0.04 | 17.7 ± 16.2 | 
CC(=O)c1cc[nH]c1 [compound 20, 1-(1H-pyrrol-3-yl)ethan-1-one] | 121 |  | 102 ± 4.3 | ΔTm at 1000 µM (TbINO1; read-out: TbIno1 Tm shift [°C]): 1.88 ± 0.08 °C; viability at 500 µM (HeLa cells; [3]): 102 ± 4.3%; CC50 (HeLa cells): > 5000 µM
OCc1csc(-c2cccnc2)n1 [compound 566, (2‐pyridin‐3‐yl‐1,3‐thiazol‐4‐yl)methanol] | 104 | 0.29 ± 0.07 | 88.4 ± 18.2 | 
O=C(O)c1ccccc1-c1cccnc1 [compound 613, 2‐pyrid‐3‐ylbenzoic acid] | 59.8 | 0.14 ± 0.07 | 80 ± 5.6 | 
CC(=O)Nc1ccc2c(c1)CCC2=O [compound 535, N1‐(1‐oxo‐2,3‐dihydro‐1H‐inden‐5‐yl)acetamide] |  |  |  | Tb Ino1 Tm Shift [˚C] (TbINO1; [4]): 0.21 ± 0.07 °C; A549 Cells Alamar Blue (A549 cells): 76.5 percentage of controls; HeLa Cells Alamar Blue (HeLa cells; [5]): 87.3 ± 4.6 percentage of controls
O=C(O)CCc1c[nH]c2ccccc12 [compound 533, 3‐(1H‐indol‐3‐yl)propanoic acid] | 67.2 | 0.73 ± 0.07 | 94.9 ± 6 | 
